In patent US20240190893A1, “MACROCYCLIC 1,3-BRIDGED 6-CHLORO-7-PYRAZOL-4-YL-1 H-INDOLE-2-CARBOXYLATE AND 6-CHLORO-7-PYRIMIDIN-5-YL-1H-INDOLE-2-CARBOXYLATE DERIVATIVES AS MCL-1 INHIBITORS FOR THE TREATMENT OF CANCER” (JANSSEN PHARMACEUTICA NV, priority 2021, published 2024):

Experiments:
[1] = target: Myeloid Cell Leukemia 1 (Mcl-1) (Homo sapiens (Human), UniProt Q07820); test: Terbium labeled Mcl-1 HTRF binding assay with Cy5-labeled BIM BH3 peptide; details: Tb-Mcl-1 25 pM, Cy5 Bim peptide 8 nM; Ki=IC50/(1+[L]/Kd), [L]=8 nM, Kd=10 nM
Method: Terbium labeled Myeloid Cell Leukemia 1 (Mcl-1) homogeneous time-resolved fluorescence (HTRF) binding assay utilizing the BIM BH3 peptide (H2N—(C/Cy5Mal) WIAQELRRIGDEFN-OH) as the binding partner for Mcl-1.
This assay evaluated inhibition of the BH3 domain: Mcl-1 interaction by measuring the displacement of Cy5-labeled BIM BH3 peptide (H2N—(C/Cy5Mal) WIAQELRRIGDEFN-OH) in the HTRF assay format.
The following assay and stock buffers were prepared for use in the assay: (a) Stock buffer: 10 mM Tris-HCl, pH=7.5+150 mM NaCl, filtered, sterilized, and stored at 4° C.; and (b) 1× assay buffer, where the following ingredients were added fresh to stock buffer: 2 mM dithiothreitol (DTT), 0.0025% Tween-20, 0.1 mg/mL bovine serum albumin (BSA). The 1×Tb-Mcl-1+Cy5 Bim peptide solution was prepared by diluting the protein stock solution using the 1× assay buffer (b) to 25 pM Tb-Mcl-1 and 8 nM Cy5 Bim peptide.
Using the Acoustic ECHO, 100 nL of 100× test compound(s) were dispensed into individual wells of a white 384-well Perkin Elmer Proxiplate, for a final compound concentration of 1× and final DMSO concentration of 1%. Inhibitor control and neutral control (NC, 100 nL of 100% DMSO) were stamped into columns 23 and 24 of assay plate, respectively. Into each well of the plate was then dispensed 10 μL of the 1×Tb-Mcl-1+Cy5 Bim peptide solution. The plate was centrifuged with a cover plate at 1000 rpm for 1 minute, then incubated for 60 minutes at room temperature with plates covered.
The TR-FRET signal was read on an BMG PHERAStar FSX MicroPlate Reader at room temperature using the HTRF optic module (HTRF: excitation: 337 nm, light source: laser, emission A: 665 nm, emission B: 620 nm, integration start: 60 μs, integration time: 400 μs).
The BMG PHERAStar FSX MicroPlate Reader was used to measure fluorescence intensity at two emission wavelengths—665 nm and 620 nm—and report relative fluorescence units (RFU) for both emissions, as well as a ratio of the emissions (665 nm/620 nm)*10,000. The RFU values were normalized to percent inhibition as follows:
% inhibition=(((NC−IC)−(compound−IC))/(NC−IC))*100
where IC (inhibitor control, low signal)=mean signal of 1×Tb-MCl-1+Cy5 Bim peptide+ inhibitor control or 100% inhibition of Mcl-1; NC (neutral control, high signal)=mean signal 1×Tb-MCl-1+Cy5 Bim peptide with DMSO only or 0% inhibition
An 11-point dose response curve was generated to determine IC50 values (using GenData) based on the following equation:
Y=Bottom+(Top−Bottom)/(1+10^((log IC50−X)*HillSlope))
where Y=% inhibition in the presence of X inhibitor concentration; Top=100% inhibition derived from the IC (mean signal of Mcl-1+inhibitor control); Bottom=0% inhibition derived from the NC (mean signal of Mcl-1+DMSO); Hillslope=Hill coefficient; and IC50=concentration of compound with 50% inhibition in relation to top/neutral control (NC).
In this assay [L]=8 nM and Kd=10 nM
Representative compounds of the present invention were tested according to the procedure as described above, with results as listed in the Table below (n.d. means not determined).

[2] = system: MOLP-8 human multiple myeloma cell line; test: Caspase-Glo 3/7 apoptosis induction assay in MOLP-8 cells; assay type: cell-based; details: MOLP8 cells, 2 hours at 37° C., averaged over all runs on all batches
Text: MCL-1 is a regulator of apoptosis and is highly over-expressed in tumor cells that escape cell death. The assay evaluates the cellular potency of small-molecule compounds targeting regulators of the apoptosis pathway, primarily MCL-1, Bfl-1, Bcl-2, and other proteins of the Bcl-2 family. Protein-protein inhibitors disrupting the interaction of anti-apoptotic regulators with BH3-domain proteins initiate apoptosis.
The Caspase-Glo® 3/7 Assay is a luminescent assay that measures caspase-3 and -7 activities in purified enzyme preparations or cultures of adherent or suspension cells. The assay provides a proluminescent caspase-3/7 substrate, which contains the tetrapeptide sequence DEVD. This substrate is cleaved to release aminoluciferin, a substrate of luciferase used in the production of light. Addition of the single Caspase-Glo® 3/7 Reagent in an “add-mix-measure” format results in cell lysis, followed by caspase cleavage of the substrate and generation of a “glow-type” luminescent signal.
This assay uses the MOLP-8 human multiple myeloma cell line, which is sensitive to MCL-1 inhibition.
Cell cultures were maintained between 0.2 and 2.0×10^6 cells/mL. The cells were harvested by collection in 50 mL conical tubes. The cells were then pelleted at 500 g for 5 mins before removing supernatant and resuspension in fresh pre-warmed culture medium. The cells were counted and diluted as needed.
The assay reagent was prepared by transferring the buffer solution to the substrate vial and mixing. The solution may be stored for up to 1 week at 4° C. with negligible loss of signal.
Compounds were delivered in assay-ready plates (Proxiplate) and stored at −20° C.
Assays always include 1 reference compound plate containing reference compounds. The plates were spotted with 40 nL of compounds (0.5% DMSO final in cells; serial dilution; 30 μM highest conc. 1/3 dilution, 10 doses, duplicates). The compounds were used at room temperature and 4 μL of pre-warmed media was added to all wells except column 2 and 23. The negative control was prepared by adding 1% DMSO in media. The positive control was prepared by adding the appropriate positive control compound in final concentration of 60 μM in media. The plate was prepared by adding 4 μL negative control to column 23, 4 μL positive control to column 2 and 4 μL cell suspension to all wells in the plate. The plate with cells was then incubated at 37° C. for 2 hours. The assay signal reagent is the Caspase-Glo solution described above, and 8 μL was added to all wells. The plates were then sealed and measured after 30 minutes.
The activity of a test compound was calculated as percent change in apoptosis induction as follows:
LC=median of the Low Control values
HC=Median of the High Control values
=30 μM of positive control
=100% apoptosis induction
% Effect (AC50)=100−((sample−LC)/(HC−LC))*100
% Control=(sample/HC)*100
% Control min=((sample−LC)/(HC−LC))*100

Sequence of Myeloid Cell Leukemia 1 (Mcl-1) (Q07820 whole entry): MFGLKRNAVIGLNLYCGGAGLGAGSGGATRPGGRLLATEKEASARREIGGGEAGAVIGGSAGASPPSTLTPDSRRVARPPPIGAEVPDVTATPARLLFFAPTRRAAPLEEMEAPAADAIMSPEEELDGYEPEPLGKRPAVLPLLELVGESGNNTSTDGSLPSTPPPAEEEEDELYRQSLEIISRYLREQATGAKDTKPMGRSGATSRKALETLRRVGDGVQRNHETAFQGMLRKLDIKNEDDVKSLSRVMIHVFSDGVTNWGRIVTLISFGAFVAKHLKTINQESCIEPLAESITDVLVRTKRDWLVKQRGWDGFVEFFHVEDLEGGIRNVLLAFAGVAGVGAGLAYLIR

| SMILES | Ki [1] [nM] | AC50 [2] [nM] | AC50 ([2]; Homo sapiens, MOLP-8, 2 h) [nM] |
| --- | --- | --- | --- |
| Cc1nn(C)c(C)c1-c1c(Cl)ccc2c3c(C(=O)O)n(c12)CCSCc1cc(n(C)n1)CCc1cc(c2ccc(F)cc2c1)OCCC3 (single isomer, unassigned) [Compound 7] | 0.086 | 231 | – |
| Cc1c(-c2c(Cl)ccc3c4c(C(=O)O)n(c23)CCCSCc2cc(n(C)n2)CCc2cc(c3ccc(F)cc3c2)OCCC4)c(CO)nn1C (single isomer, unassigned) [Compound 16] | 0.056 | 414 | – |
| Cc1nn(C)c(C)c1-c1c(Cl)ccc2c3c(C(=O)O)n(c12)CCSCc1cc(n(C)n1)CCc1cc(c2ccccc2c1)OCCC3 (single isomer, unassigned) [Compound 12] | 0.396 | 1350 | – |
| Cc1nn(C)c(C)c1-c1c(Cl)ccc2c3c(C(=O)O)n(c12)CCSCc1cc(n(C)n1)CSc1cc(c2ccccc2c1)OCCC3 (single isomer, unassigned) [Compound 13] | 0.392 | – | 1340 |
| Cc1nn(C)c(C)c1-c1c(Cl)ccc2c3c(C(=O)O)n(c12)CCCSCc1cc(n(C)n1)CCc1cc(c2ccc(F)cc2c1)OCCC3 (single isomer, unassigned) [Compound 2] | 0.084 | – | 130 |
| COCCn1nc(C)c(-c2c(Cl)ccc3c4c(C(=O)O)n(c23)CCCSCc2cc(n(C)n2)CCc2cc(c3ccc(F)cc3c2)OCCC4)c1C (single isomer, unassigned) [Compound 9] | 0.139 | – | 232 |
| Cc1nn(C)c(C)c1-c1c(Cl)ccc2c3c(C(=O)O)n(c12)CCCSCc1cc(n(C)n1)CSc1cc(c2ccccc2c1)OCCC3 [Compound 19] | – | 740 | – |
| Cc1nn(C)c(C)c1-c1c(Cl)ccc2c3c(C(=O)O)n(c12)CCSCc1cc(n(C)n1)CCc1cc(c2ccc(F)cc2c1)OCCC3 (single isomer, unassigned) [Compound 6] | 0.056 | – | 237 |
| Cc1nn(C)c(C)c1-c1c(Cl)ccc2c3c(C(=O)O)n(c12)CCCS(=O)(=O)Cc1cc(n(C)n1)CCc1cc(c2ccc(F)cc2c1)OCCC3 (single isomer, unassigned) [Compound 4] | 0.251 | – | 7030 |
| Cc1nn(C)c(C)c1-c1c(Cl)ccc2c3c(C(=O)O)n(c12)CCCSCc1cc(n(C)n1)CCc1cc(c2ccc(F)cc2c1)OCCC3 [Compound 1] | 0.126 | – | 90.5 |
| COCCOCc1nn(C)c(C)c1-c1c(Cl)ccc2c3c(C(=O)O)n(c12)CCCSCc1cc(n(C)n1)CCc1cc(c2ccc(F)cc2c1)OCCC3 (single isomer, unassigned) [Compound 21] | 0.155 | 1010 | – |
| COCCn1nc(C)c(-c2c(Cl)ccc3c4c(C(=O)O)n(c23)CCCSCc2cc(n(C)n2)CCc2cc(c3ccc(F)cc3c2)OCCC4)c1C (single isomer, unassigned) [Compound 10] | 0.093 | 160 | – |
| Cc1nn(C)c(C)c1-c1c(Cl)ccc2c3c(C(=O)O)n(c12)CCSCc1cc(n(C)n1)CCc1cc(c2ccccc2c1)OCCC3 (single isomer, unassigned) [Compound 11] | 0.307 | – | 1460 |
| Cc1nn(C)c(C)c1-c1c(Cl)ccc2c3c(C(=O)O)n(c12)CCCSCc1cc(n(C)n1)CSc1cc(c2ccccc2c1)OCCC3 [Compound 18] | – | 3640 | – |
| Cc1nn(C)c(C)c1-c1c(Cl)ccc2c3c(C(=O)O)n(c12)CCCSCc1cc(n(C)n1)CCc1cc(c2ccc(F)cc2c1)OCCC3 (single isomer, unassigned) [Compound 3] | 0.133 | 207 | – |
| Cc1nn(C)c(C)c1-c1c(Cl)ccc2c3c(C(=O)O)n(c12)CCCS(=O)(=O)Cc1cc(n(C)n1)CCc1cc(c2ccc(F)cc2c1)OCCC3 (single isomer, unassigned) [Compound 5] | 0.276 | 7270 | – |
| COCCOCc1nn(C)c(C)c1-c1c(Cl)ccc2c3c(C(=O)O)n(c12)CCCSCc1cc(n(C)n1)CCc1cc(c2ccc(F)cc2c1)OCCC3 (single isomer, unassigned) [Compound 20] | 0.073 | 173 | – |
| Cn1cc(-c2c(Cl)ccc3c4c(C(=O)O)n(c23)CCCSCc2cc(n(C)n2)CCc2cc(c3ccc(F)cc3c2)OCCC4)cn1 [Compound 8] | 0.977 | – | 1340 |
| Cc1nn(C)c(C)c1-c1c(Cl)ccc2c3c(C(=O)O)n(c12)CCSCc1cc(n(C)n1)CSc1cc(c2ccccc2c1)OCCC3 (single isomer, unassigned) [Compound 14] | 0.423 | 1540 | – |
| Cc1c(-c2c(Cl)ccc3c4c(C(=O)O)n(c23)CCCSCc2cc(n(C)n2)CCc2cc(c3ccc(F)cc3c2)OCCC4)c(CO)nn1C (single isomer, unassigned) [Compound 17] | 0.08 | 1830 | – |
| Cn1nc2cc1CCc1cc(c3ccc(F)cc3c1)OCCCc1c(C(=O)O)n(c3c(-c4cncnc4)c(Cl)ccc13)CCC[S+]([O-])C2 (stereo not drawn) [Compound 15] | 0.426 | – | – |
